Measured values: ChEMBL document CHEMBL3232755, “Optimization of plasmepsin inhibitor by focusing on similar structural feature with chloroquine to avoid drug-resistant mechanism of Plasmodium falciparum” (Bioorg Med Chem Lett, 2014)

Legend:
Plasmepsin II = Plasmepsin II (Plasmodium falciparum, UniProt P46925); experiment: Inhibition of Plasmodium falciparum plasmepsin 2
Plasmodium falciparum [1] = experiment: Resistance index, ratio of EC50 for chloroquine, mefloquine and pyrimethamine-resistant Plasmodium falciparum TM91C235 to EC50 for chloroquine-sensitive Plasmodium falciparum D6; format: functional
Plasmodium falciparum [2] = experiment: Antimalarial activity against chloroquine and pyrimethamine-resistant mefloquine-sensitive Plasmodium falciparum W2 by SYBR green I staining-based fluorescence assay; format: functional, organism-based
Plasmodium falciparum [3] = experiment: Resistance index, ratio of EC50 for chloroquine and pyrimethamine-resistant mefloquine-sensitive Plasmodium falciparum W2 to EC50 for chloroquine-sensitive Plasmodium falciparum D6; format: functional
Plasmodium falciparum [4] = experiment: Antimalarial activity against chloroquine, mefloquine and pyrimethamine-resistant Plasmodium falciparum TM91C235 by SYBR green I staining-based fluorescence assay; format: functional, organism-based
Plasmodium falciparum [5] = experiment: Antimalarial activity against chloroquine-sensitive Plasmodium falciparum D6 by SYBR green I staining-based fluorescence assay; format: functional, organism-based

Plasmepsin II, sequence (P46925 whole entry): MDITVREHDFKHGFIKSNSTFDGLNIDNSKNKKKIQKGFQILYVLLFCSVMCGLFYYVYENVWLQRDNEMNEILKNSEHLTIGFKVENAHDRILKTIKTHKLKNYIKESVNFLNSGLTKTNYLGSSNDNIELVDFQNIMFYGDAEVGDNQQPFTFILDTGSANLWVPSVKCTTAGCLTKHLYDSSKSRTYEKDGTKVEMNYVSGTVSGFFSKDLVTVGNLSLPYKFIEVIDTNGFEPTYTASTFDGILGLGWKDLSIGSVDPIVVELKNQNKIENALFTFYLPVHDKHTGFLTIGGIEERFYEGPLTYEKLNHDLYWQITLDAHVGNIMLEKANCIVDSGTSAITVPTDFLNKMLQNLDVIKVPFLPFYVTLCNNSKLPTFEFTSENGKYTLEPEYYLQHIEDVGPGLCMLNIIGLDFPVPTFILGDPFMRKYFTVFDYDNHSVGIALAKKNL

| Structure (SMILES) | Ki (Plasmepsin II) [nM] | Ratio EC50 (Plasmodium falciparum [1]) | EC50 (Plasmodium falciparum [2]) [nM] | Ratio EC50 (Plasmodium falciparum [3]) | EC50 (Plasmodium falciparum [4]) [nM] | EC50 (Plasmodium falciparum [5]) [nM] |
| --- | --- | --- | --- | --- | --- | --- |
| Cc1cc(NC(=O)CN)cc(C)c1OCC(=O)N[C@@H](Cc1ccccc1)[C@H](O)C(=O)N1CSC(C)(C)[C@H]1C(=O)N[C@H]1c2ccccc2C[C@H]1O | 1.2 | – | – | – | – | – |
| Cc1cc(NCc2c[nH]cn2)cc(C)c1OCC(=O)N[C@@H](Cc1ccccc1)[C@H](O)C(=O)N1CSC(C)(C)[C@H]1C(=O)N[C@H]1c2ccccc2C[C@H]1O | 4.8 | <=2 | – | – | – | – |
| Cc1cc(NCc2ccccn2)cc(C)c1OCC(=O)N[C@@H](Cc1ccccc1)[C@H](O)C(=O)N1CSC(C)(C)[C@H]1C(=O)N[C@H]1c2ccccc2C[C@H]1O | – | – | 730 | 1.3 | – | – |
| Cc1cc(NC(=O)CN2CCOCC2)cc(C)c1OCC(=O)N[C@@H](Cc1ccccc1)[C@H](O)C(=O)N1CSC(C)(C)[C@H]1C(=O)N[C@H]1c2ccccc2C[C@H]1O | 4.3 | – | – | – | – | – |
| Cc1cc(NCCCl)cc(C)c1OCC(=O)N[C@@H](Cc1ccccc1)[C@H](O)C(=O)N1CSC(C)(C)[C@H]1C(=O)N[C@H]1c2ccccc2C[C@H]1O | 5.5 | <=2 | – | – | – | – |
| CCNCCNc1cc(C)c(OCC(=O)N[C@@H](Cc2ccccc2)[C@H](O)C(=O)N2CSC(C)(C)[C@H]2C(=O)N[C@H]2c3ccccc3C[C@H]2O)c(C)c1 | – | 8.6 | – | – | 1900 | – |
| Cc1cc(NC(=O)CCN)cc(C)c1OCC(=O)N[C@@H](Cc1ccccc1)[C@H](O)C(=O)N1CSC(C)(C)[C@H]1C(=O)N[C@H]1c2ccccc2C[C@H]1O | 2.3 | 2.8 | – | – | 730 | 260 |
| Cc1cc(NC(=O)CCCCCN)cc(C)c1OCC(=O)N[C@@H](Cc1ccccc1)[C@H](O)C(=O)N1CSC(C)(C)[C@H]1C(=O)N[C@H]1c2ccccc2C[C@H]1O | 5.7 | 0.28 | – | – | 720 | 2600 |
| COC(CNc1cc(C)c(OCC(=O)N[C@@H](Cc2ccccc2)[C@H](O)C(=O)N2CSC(C)(C)[C@H]2C(=O)N[C@H]2c3ccccc3C[C@H]2O)c(C)c1)OC | 11 | <=2 | – | – | – | 850 |
| Cc1cccc(CNc2cc(C)c(OCC(=O)N[C@@H](Cc3ccccc3)[C@H](O)C(=O)N3CSC(C)(C)[C@H]3C(=O)N[C@H]3c4ccccc4C[C@H]3O)c(C)c2)n1 | 4.4 | <=2 | – | – | – | – |
| Cc1cc(NC(=O)CCCCN)cc(C)c1OCC(=O)N[C@@H](Cc1ccccc1)[C@H](O)C(=O)N1CSC(C)(C)[C@H]1C(=O)N[C@H]1c2ccccc2C[C@H]1O | 1 | 0.34 | – | – | 620 | 1800 |
| CNCCN(C)c1cc(C)c(OCC(=O)N[C@@H](Cc2ccccc2)[C@H](O)C(=O)N2CSC(C)(C)[C@H]2C(=O)N[C@H]2c3ccccc3C[C@H]2O)c(C)c1 | – | 4.5 | – | – | 860 | – |
| Cc1cc(NCc2ccnc3ccccc23)cc(C)c1OCC(=O)N[C@@H](Cc1ccccc1)[C@H](O)C(=O)N1CSC(C)(C)[C@H]1C(=O)N[C@H]1c2ccccc2C[C@H]1O | 1.7 | <=2 | – | – | – | 500 |
| Cc1cc(NC(=O)CCCN)cc(C)c1OCC(=O)N[C@@H](Cc1ccccc1)[C@H](O)C(=O)N1CSC(C)(C)[C@H]1C(=O)N[C@H]1c2ccccc2C[C@H]1O | 1.1 | 0.41 | – | – | 1300 | 3200 |
| CCOP(=O)(CCNc1cc(C)c(OCC(=O)N[C@@H](Cc2ccccc2)[C@H](O)C(=O)N2CSC(C)(C)[C@H]2C(=O)N[C@H]2c3ccccc3C[C@H]2O)c(C)c1)OCC | 22 | <=2 | – | – | – | 600 |
